# Laboratory results from the supplement of paper PMC10307832.
# Experiments:
# Metformin = compound: CN(C)C(=N)NC(=N)N [Metformin]; assay: relative viability (nuclei count vs DMSO), 5 days (fraction); higher = more cells survive
# Outline: (§1)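 Vehicle-anchored 1536-well plates of lung cancer cell lines, held overnight at 37 °C, were pinned with five library-drug doses (not always all listed) spaced by √10. No medium change followed over the next 5 days, after which the cells were fixed, permeabilised and Hoechst-stained together and imaged at 4×. Nuclei were counted with MetaXpress, and viability is treated-well nuclei over vehicle-well nuclei, taken as a median across plates. Plates passed with control CV below 25% and at least one doubling.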
# Apatinib = compound: N#CC1(c2ccc(NC(=O)c3cccnc3NCc3ccncc3)cc2)CCCC1 [Apatinib]; assay: as above
# Outline: as §1
cell line,measurement,setting,value
NCI-H460,relative viability,Metformin; 31.62 µM,1.01
same,relative viability,Metformin; 100 µM,1
same,relative viability,Metformin; 316.23 µM,0.976
same,relative viability,Metformin; 1000 µM,1.07
same,relative viability,Apatinib; 0.08 µM,0.976
same,relative viability,Apatinib; 0.253 µM,0.99
same,relative viability,Apatinib; 0.8 µM,0.963
same,relative viability,Apatinib; 2.53 µM,0.925
same,relative viability,Apatinib; 8 µM,0.93
